Source: US8101745B2, “Lung-targeted drugs” (priority 2004, dated 2012)
“And” between values parts separate entries of the source, which are not always exact repeats. Equal entries are not always repeated. Where two headings read alike, the source gives them in different places.

What was measured:
[1] = tested on: Vaccinia Copenhagen; conditions: cited from earlier work; for EC50: Vaccinia Copenhagen, effective dose 50%
[2] = tested on: Vaccinia Copenhagen; type: cell-based
[3] = tested on: Cowpox Brighton; conditions: cited from earlier work
[4] = toxic dose 50%; read-out: TC50 (the source's name); cited from earlier work
[5] = tested on: ectromelia virus; conditions: mouse, in vivo, po, cited from earlier work
[6] = tested on: Cowpox Brighton; type: cell-based
[7] = in vivo; cited from earlier work
[8] = Oral pharmacokinetics of 14C-labeled drug, liver and lung levels in mice; conditions: for AUC 14C-Drug Liver / AUC 14C-Drug Lung / Ratio Lung/Liver / Ratio Liver/Lung: 10 mg/kg single oral dose, 0 to 72 hours; for Ratio Lung/Liver / Ratio Liver/Lung: ratio of AUC
[9] = tested on: ectromelia virus; parameters: species or system Female A/NCR mice; conditions: mouse, in vivo, po

| SMILES | EC50 [1] | SI [2] | EC50 [3] | CC50 [4] | Lung titer ([5]; 10 mg/kg) | Mortality ([5]; 10 mg/kg) | Spleen titer ([5]; 10 mg/kg) | SI [6] | AUC 14C-Drug Liver ([8]; mice) | AUC 14C-Drug Lung ([8]; mice) | Ratio Lung/Liver [8] | Ratio Liver/Lung ([8]; 10 mg/kg) | other results |
| --- | --- | --- | --- | --- | --- | --- | --- | --- | --- | --- | --- | --- | --- |
| Nc1ccn(C[C@@H](CO)OCP(=O)(O)O)c(=O)n1 [CDV, cidofovir] | 31000 nM | >10 | 42000 nM | > 317000 nM | 3 × 10^6 pfu/ml | 100% | 3 × 10^6 pfu/ml | >7.5 |  |  |  |  | oral bioavailability [7]: < 6% |
| CCCCCCCCCCCCCCCCOCCCOP(=O)(O)CO[C@H](CO)Cn1ccc(N)nc1=O [HDP-CDV, hexadecyloxypropyl-CDV] | 600 nM | 48 | 500 nM | 29000 nM | 5 × 10^4 pfu/ml | 0% | <10^2 pfu/ml | 58 | 1367 nmol · gm · hrs | 49 nmol · gm · hrs | 0.04 | 27.9 | Liver titer ([5]; 10 mg/kg): <10^2 pfu/ml |
| CCCCCCCCCCCCCCCCCCOC[C@H](COP(=O)(O)CO[C@H](CO)Cn1ccc(N)nc1=O)OCc1ccccc1 [ODBG-CDV, 1-O-Octadecyl-2-O-benzyl-sn-glycero-3-cidofovir] | 400 nM | 118 | 300 nM | 47000 nM |  |  |  | 157 | 318 nmol · gm · hrs | 581 nmol · gm · hrs | 1.82 |  | activity against vaccinia virus in vitro ([1]; in words): highly active; activity against cowpox virus in vitro [3]: highly active; Lung levels of 14C-labeled drug ([8]; 10 mg/kg oral, mice, over 72 hours, compared with HDP-CDV or ODE-CDV (FIG. 1)): much higher; liver levels of 14C-labeled drug ([8]; 10 mg/kg oral, mice, over 72 hours, compared with HDP-CDV or ODE-CDV (FIG. 2)): lower; lung area under curve relative to alkoxyalkyl derivatives of CDV ([8]; given orally, versus non lung-targeted alkoxyalkyl derivatives): 10 fold; Ratio Liver/Lung [8]: 0.55; Mortality day 21 [9]: 2/10 and 0/10; protection from death [9]: provides protection from death; Mean time to death ([9]; 2 mg/kg/day): 13.0 ± 1.4 |
| CCCCCCCCCCCCCCCCCCOCCOP(=O)(O)CO[C@H](CO)Cn1ccc(N)nc1=O [ODE-CDV, octadecyloxyethyl-CDV] | 600 nM | 105 | 500 nM | 21000 nM |  |  |  | 105 | 1215 nmol · gm · hrs | 60 nmol · gm · hrs | 0.05 | 20.3 | Liver titer ([5]; 5 mg/kg): <10^2 pfu/ml; Lung titer ([5]; 5 mg/kg): 3 × 10^5 pfu/ml; Mortality ([5]; 5 mg/kg): 0%; Spleen titer ([5]; 5 mg/kg): <10^2 pfu/ml |
